Reference: patent publication US20240417425A1 (priority 2021, published 2024)
Like-named read-outs stand apart in the source and are kept apart here.

Columns and labels:
[1] = test system: MHV, FIPV, Middle East respiratory syndrome (MERS)-CoV, VSV, IAV; conditions: cited from earlier work
Na^+, K^+-ATPase = conditions: for Inhibition of brain microsomal Na+,K+-ATPase activity, potency in comparison to Bufalin: FIGS. 2 and 3
quail cardiomyocytes = conditions: for Effect on cardiomyocytes contractility compared to digoxin: all concentrations tested, 10 minutes and 30 minutes after addition (FIGS. 5, 6)
in vitro = conditions: human
[2] = test system: Neuroblastoma (SH-SY5Y) cells
NCI-60 cell line panel = test: NCI-60 one-dose cancer cell growth testing; format: cell-based, human; conditions: FIGS. 13-15
Procedure: The anti-proliferative activity of the target compounds was tested against the NCI-60 cell line panel. The screening was performed at the National Cancer Institute (NCI), Bethesda, Maryland, USA (www.dtp.nci.nih.gov), according to their standard protocol (https://dtp.cancer.gov/discovery_development/nci-60/methodology.htm).
In the anti-cancer studies were performed at the NCI, NIH in the one-dose testing of the NCI-60 project (https://dtp.cancer.gov/discovery_development/nci-60/methodology.htm). The numbers reported are growth relative to the no-drug control, and relative to the time zero number of cells. This allows detection of both growth inhibition (values between 0 and 100) and lethality (values less than 0). For example, a value of 100 means no growth inhibition. A value of 40 would mean 60% growth inhibition. A value of 0 means no net growth over the course of the experiment. A value of −40 would mean 40% lethality. A value of −100 means all cells are dead.

[3] = test system: Chikungunya virus (CHIKV); conditions: human cells; cited from earlier work
[4] = test system: Japanese Encephalitis Virus; conditions: cited from earlier work
influenza virus = conditions: cited from earlier work
[5] = test system: Human respiratory syncytial virus (RSV); conditions: human small airway epithelial cells; cited from earlier work
[6] = test system: transmissible gastroenteritis coronavirus (TGEV); conditions: swine testicular (ST) cells; cited from earlier work
herpes simplex virus = conditions: cited from earlier work

SMILES	Inhibition of brain microsomal Na+,K+-ATPase activity, potency in comparison to Bufalin (Na^+, K^+-ATPase)	Effect on cardiomyocytes contractility compared to digoxin (quail cardiomyocytes)	viability at 5 µM (in vitro) [%]	viability at 25 µM (in vitro) [%]	viability at 50 µM (in vitro) [%]	viability at 100 µM (in vitro) [%]	Cytotoxic potency in comparison to the other steroids [2]	Most sensitive cancer cell line (NCI-60 cell line panel)	Effect on infection by CHIKV [3]	Efficiency against Japanese Encephalitis Virus [4]	also measured
C[C@]12CC[C@H](O)C[C@H]1CC[C@@H]1[C@@H]2CC[C@]2(C)[C@@H](c3ccc(=O)oc3)CC[C@]12O [Bufalin, bufalin]											Effect on infection of cells with viruses [1]: inhibited infection of cells with MHV, FIPV, Middle East respiratory syndrome (MERS)-CoV, and VSV, but not IAV
C[C@]12CC=CCC1CCC1C2CC[C@]2(C)[C@@H](c3ccc(=O)oc3)CC[C@]12O (stereo partly drawn) [Compound 1, bufalin 2,3-ene]	approximately the same potency as Bufalin	stronger effect on contractility than digoxin	32.2	13.8	5.62	1.28	lower cytotoxic potency	SNB-19			
C[C@]12CCC=CC1CCC1C2CC[C@]2(C)[C@@H](c3ccc(=O)oc3)CC[C@]12O (stereo partly drawn) [Compound 2, bufalin 3,4-ene]	more potent inhibitor	stronger effect on contractility than digoxin	53.8	24.7	11.5	6.13	lower cytotoxic potency	SNB-19			Inhibition of Na+,K+-ATPase activity at very low concentrations in comparison to Bufalin (Na^+, K^+-ATPase; very low (nanomolar) concentrations): better than Bufalin
C[C@H]1O[C@@H](O[C@H]2[C@@H](O)C[C@H](O[C@H]3[C@@H](O)C[C@H](O[C@H]4CC[C@@]5(C)[C@H](CC[C@@H]6[C@@H]5C[C@@H](O)[C@]5(C)[C@@H](C7=CC(=O)OC7)CC[C@]65O)C4)O[C@@H]3C)O[C@@H]2C)C[C@H](O)[C@@H]1O [Digoxin, digoxin]			23.4	1.02	0.26	2.55			dose-dependent decrease in infection	robust efficiency against the virus	
C[C@@H]1O[C@@H](O[C@H]2C[C@@H](O)[C@]3(CO)[C@H]4[C@H](O)C[C@]5(C)[C@@H](C6=CC(=O)OC6)CC[C@]5(O)[C@@H]4CC[C@]3(O)C2)[C@H](O)[C@H](O)[C@H]1O [Ouabain, ouabain]			6.26	1.92	0.51	4.09			dose-dependent decrease in infection	robust efficiency against the virus	Effect on influenza virus replication (influenza virus): decrease influenza virus replication; Effect on RSV entry [5]: inhibited; Effect on infection of cells with viruses ([1]; nM concentrations): inhibited infection of cells with MHV, FIPV, Middle East respiratory syndrome (MERS)-CoV, and VSV, but not IAV; Effect on TGEV-induced production of IL-6 [6]: inhibit the TGEV-induced production of IL-6 in a dose dependent manner; Reduction of expression of viral immediate-early and early genes (herpes simplex virus): at least 5 fold
NC[C@H](O)c1ccc(O)c(O)c1 [noradrenaline]											Effect on cardiomyocytes contractility (quail cardiomyocytes; dose-dependently, FIG. 4): increased
